# Test results: patent US20250009924A1, “Indane Derivatives for Malodor Counteraction” (Firmenich SA, priority 2015, published 2025)
# Tests used:
# [1] = Binary mixtures of lily-of-the-valley odorants with malodor, perception of fecal and animal note; details: the fecal and animal note remains clearly perceptible
# [2] = system: indole-responsive olfactory sensory neurons; assay: Ca2+ imaging of olfactory sensory neurons, antagonist screening against indole; format: cell-based; details: 25 μM indole + 125 μM MOC compound as binary mixture; percentage of malodor-responsive OSN population inhibited by more than 10% (modulation values less than −10%)
# Procedure: (§1) Identification of malodor-sensitive olfactory neurons was performed as previously described in WO 2014/210582. Identification of antagonist compounds that inhibit the response of malodor-sensitive olfactory neurons to the target malodor was performed according to Kajiya et al (2001) (K. Kajiya, et al in The Journal of Neuroscience, (2001) 21, 6018-6025).
# (§2) Olfactory sensory neurons were stimulated with 25 μM indole (MO) and 125 μM MOC either alone or as a binary mixture. By comparing the peak value of the calcium-induced fluorescence ratio change induced by exposure to the target MO compound to that of the mixture of MO+MOC candidate, a “modulation value” was calculated. The larger the difference between the two peak values, the greater the magnitude of the modulation value. If the peak value for the MO was larger than that of the MO+MOC, the modulation value was negative, whilst the inverse produced positive modulation values. A modulation value was calculated for each cell responding to the positive-control stimulus forskolin (Pos) and the MO compound, but not to the negative-control buffer stimulus (Neg). For each candidate MOC compound, a baseline ‘modulation value’ was obtained by repeated stimulations of olfactory neurons with indole alone (left box plot in B, D, F). The percentage of target malodor-responsive cells with negative modulation values less than −10% was plotted on a bar chart. Population data are represented as box plots, where the interquartile range (25-75th percentiles) of olfactory sensory neuron modulation is contained within the box, with the median indicated by the black bar and the 95th percentile by the arms.
# Olfactory sensory neurons were stimulated with 25 μM indole malodor and 125 μM candidate MOC compound as a binary mixture.
# [3] = Air dilution olfactometry sensory panel, indole vs indole + compound; format: in vivo, human; design: key to Freshness score: linear labeled scale, no freshness to very fresh; key to Animal/Fecal/Tar score: linear labeled scale, no to very animal/fecal/tar; key to Pleasantness score: linear labeled scale, very unpleasant to very pleasant; details: for Freshness score / Pleasantness score / Animal/Fecal/Tar score: indole + compound at individualized iso-intense concentrations; for Freshness score: indole alone 2.2 ± 0.2; for Pleasantness score: indole alone 2.6 ± 0.2; for Animal/Fecal/Tar score: linear labeled scale, indole alone 6.9 ± 0.2; for Animal/Fecal/Tar Reduction: indole + compound vs indole alone, iso-intense levels
# Procedure: Air dilution olfactometry was used to measure all psychophysical data of individual and mixed odorants. Odorized flows of air with precisely set concentrations were prepared by the evaporation of a known flux of odorant in a determined flow of air. The flux of odorant was delivered through a microsyringe operated by a calibrated micromotor into a heated vessel under a steady nitrogen flow. The odorant was vaporized and swept away by the nitrogen, and this primary flow was later diluted with humidified air to the desired concentration. Odorants can be presented one by one in olfactometers (see as a reference “Multidimensional visualization of physical and perceptual data leading to a creative approach in fragrance development”, C. Vuilleumier, M. van de Waal, H. Fontannaz, I. Cayeux and P. A. Rebetez, in Perfumer & Flavourist, 33, 55 (2008)); alternatively, a machine blending up to 12 flows of odorants in variable and adjustable proportions could be used. A sniffing outlet delivered a continuous and adjustable odorized air flow. The upper working limit was determined by the vapor pressure of the odorants at room temperature. The odorized flow was delivered at a temperature of 26° C., close to the temperature within the nose. The combination of air (540 l/h) and nitrogen (60 l/h) represented a total gas flow of 600 l/h with a relative humidity of 50%. The speed of injection of the solutions in the evaporation chamber was modulated and controlled for each subject and adjusted to obtain a medium perceived intensity (see above reference, for instance FIG. 4).
# Standardized psychophysical procedures were used to determine olfactory detection thresholds (triangle testing) or perceived intensity, after a training period (see above reference).
# A method was designed as an iterative process to obtain dose-response relationship and odor detection threshold of perfumery ingredients or malodorants with a minimum number of experiments (see FIG. 5 in the above reference).
# FIG. 2 reports the radar plot of indole alone and indole+compound 1 obtained with a panel of 13 persons using a sensory protocol to evaluate the potential antagonists versus indole. The protocol involves two steps: • Step 1: the participants evaluated the tested ingredients and indole independently to adjust their individualized concentrations by changing the rate of injection (see above description and reference) to elicit a medium intensity perception for each chemical. These concentrations, corresponding to iso-intense levels, were applied in the second step of the process. The range of concentrations to be submitted to subjects was determined from dose-response relationships for the selected ingredients and indole. In the present experiment the molar ratio Compound 1/indole varied according to the individuals from about 1/1 to 10/1 (typical preferred individual range is between 2.5/1 and 4.5/1). • Step 2: Blind sensory evaluations were set; no information was disclosed to the participants on the submitted odorous stimuli. The subjects had to evaluate first indole alone at its individualized concentration and rate the following three descriptors on a linear labeled scale: • Pleasantness (From «Very unpleasant» to «Very pleasant») • Freshness (From «No Freshness» to «Very fresh») • Malodor character: Animal/Fecal/Tar (From «No . . . » to «Very . . . »)
# The next submission, 30 seconds after the previous one to avoid odor adaptation, involved the simultaneous injection of indole and of the tested ingredient at individualized concentrations. The same descriptors were rated.
# [4] = system: Skatole OSNs (olfactory sensory neurons); assay: Ca2+ imaging of olfactory sensory neurons, antagonist screening against skatole; format: cell-based; details: 50 μM skatole + 250 μM MOC compound as binary mixture; percentage of malodor-responsive OSN population inhibited by more than 10%
# Procedure: as §1, §2
# Olfactory sensory neurons were stimulated with 50 μM skatole malodor and 250 μM candidate MOC compound as a binary mixture.
# [5] = system: DMTS OSNs (olfactory sensory neurons); assay: Ca2+ imaging of olfactory sensory neurons, antagonist screening against dimethyl trisulfide (DMTS); format: cell-based; details: 50 μM DMTS + 250 μM MOC compound as binary mixture; percentage of malodor-responsive OSN population inhibited by more than 10%
# Procedure: as §1, §2
# Olfactory sensory neurons were stimulated with 50 μM DMTS malodor and 250 μM candidate MOC compound as a binary mixture.
smiles,measurement,setting,value
"CC1(C)CCc2ccc(CCC=O)cc21 [3-(3,3-dimethyl-2,3-dihydro-1h-inden-5-yl)propanal]",malodor reduction (reduction of the negative odor character),[1],fail to produce such malodor reduction
CC(C=O)Cc1ccc(C(C)(C)C)cc1 (stereo not drawn) [3-(4-tert-butylphenyl)-2-methylpropanal],malodor reduction (reduction of the negative odor character),[1],fail to produce such malodor reduction
CC(C)(C)c1ccc(CCC=O)cc1 [3-(4-tert-butylphenyl)propanal],malodor reduction (reduction of the negative odor character),[1],fail to produce such malodor reduction
"Cc1ccc2c(c1)CC(C)(CO)C2 (stereo not drawn) [Compound 1, 2,5-dimethyl-2-indanemethanol]",Proportion of Indole OSNs,[2],56%
same,Freshness score,[3],6.7 ± 0.9
same,Pleasantness score,[3],7.8 ± 0.7
same,Animal/Fecal/Tar score,[3],1.3 ± 0.5
same,Animal/Fecal/Tar Reduction,[3],81 percentage
same,Proportion of Skatole OSNs,[4],82%
same,Proportion of DTMS OSNs,[5],69%
"COCC1(C)Cc2ccc(C)cc2C1 (stereo not drawn) [Compound 2, (2,5-dimethyl-2,3-dihydro-1H-inden-2-yl)methyl methyl ether]",Proportion of Indole OSNs,[2],43%
same,Freshness score,[3],4.7 ± 1.3
same,Pleasantness score,[3],3.9 ± 0.8
same,Animal/Fecal/Tar score,[3],3.5 ± 1.5
same,Animal/Fecal/Tar Reduction,[3],50 percentage
"CC1(CO)Cc2ccccc2C1 [Compound 3, (2-methyl-2,3-dihydro-1H-inden-2-yl)methanol]",Proportion of Indole OSNs,[2],41%
same,Freshness score,[3],5.2 ± 1.5
same,Pleasantness score,[3],6.0 ± 1.4
same,Animal/Fecal/Tar score,[3],3.1 ± 1.3
same,Animal/Fecal/Tar Reduction,[3],55 percentage
"Cc1ccc2c(c1)CC(CO)C2 (stereo not drawn) [Compound 4, (5-methyl-2,3-dihydro-1H-inden-2-yl)methanol]",Proportion of Indole OSNs,[2],41%
same,Freshness score,[3],6.6 ± 1.5
same,Pleasantness score,[3],7.2 ± 1.2
same,Animal/Fecal/Tar score,[3],2.1 ± 1.1
same,Animal/Fecal/Tar Reduction,[3],70 percentage
"CC(=O)OCC1(C)Cc2ccccc2C1 [Compound 5, (2-methyl-2,3-dihydro-1H-inden-2-yl)methyl acetate]",Proportion of Indole OSNs,[2],77%
same,Freshness score,[3],5.2 ± 1.2
same,Pleasantness score,[3],5.7 ± 1.1
same,Animal/Fecal/Tar score,[3],2.7 ± 1.0
same,Animal/Fecal/Tar Reduction,[3],61 percentage
same,Proportion of Skatole OSNs,[4],87%
same,Proportion of DTMS OSNs,[5],82%
"CC(=O)C1(C)Cc2ccc(C)cc2C1 (stereo not drawn) [Compound 6, 1-(2,5-dimethyl-2,3-dihydro-1H-inden-2-yl)ethanone]",Proportion of Indole OSNs,[2],69%
same,Freshness score,[3],5.2 ± 1.6
same,Pleasantness score,[3],5.8 ± 1.4
same,Animal/Fecal/Tar score,[3],2.2 ± 1.2
same,Animal/Fecal/Tar Reduction,[3],68 percentage
same,Proportion of Skatole OSNs,[4],92%
same,Proportion of DTMS OSNs,[5],94%
"Cc1ccc2c(c1)CCC(C)(CO)C2 (stereo not drawn) [Compound 7, (2,6-dimethyl-1,2,3,4-tetrahydro-2-naphthalenyl)methanol]",Proportion of Indole OSNs,[2],54%
"CCc1ccc2c(c1)CC(C)(CO)C2 (stereo not drawn) [Compound 8, 5-ethyl-2-methyl-2-indanmethanol]",Proportion of Indole OSNs,[2],30%
"Cc1ccc2c(c1C)CC(C)(CO)C2 (stereo not drawn) [Compound 9, (2,4,5-trimethyl-2,3-dihydro-1H-inden-2-yl)methanol]",Proportion of Indole OSNs,[2],78%
"CC(=O)OCC1(C)Cc2ccc(C)cc2C1 (stereo not drawn) [Compound 10, (2,5-dimethyl-2-indanyl)methyl acetate]",Proportion of Indole OSNs,[2],42%
"CCC1(CO)Cc2ccc(C)cc2C1 (stereo not drawn) [Compound 11, 2-ethyl-5-methyl-2-indanmethanol]",Proportion of Indole OSNs,[2],35%
"CC(C)c1ccc2c(c1)CC(C)(CO)C2 (stereo not drawn) [Compound 12, 5-isopropyl-2-methyl-2-indanmethanol]",Proportion of Indole OSNs,[2],57%
"CC1(CO)Cc2ccc(C(C)(C)C)cc2C1 (stereo not drawn) [Compound 13, 5-tert-butyl-2-methyl-2-indanmethanol]",Proportion of Indole OSNs,[2],54%
"Cc1cc2c(cc1C)CC(C)(CO)C2 [Compound 14, 2,5,6-trimethyl-2-indanmethanol]",Proportion of Indole OSNs,[2],20%
"Cc1cccc2c1CC(C)(CO)C2 (stereo not drawn) [Compound 15, 2,4-dimethyl-2-indanmethanol]",Proportion of Indole OSNs,[2],17%
"Cc1cc(C)c2c(c1)CC(C)(CO)C2 (stereo not drawn) [Compound 16, (2,4,6-trimethyl-2,3-dihydro-1H-inden-2-yl)methanol]",Proportion of Indole OSNs,[2],14%
same,Freshness score,[3],6.2 ± 1.6
same,Pleasantness score,[3],6.4 ± 1.3
same,Animal/Fecal/Tar score,[3],2.6 ± 1.4
same,Animal/Fecal/Tar Reduction,[3],62 percentage
"COc1ccc2c(c1)CC(C)(CO)C2 (stereo not drawn) [Compound 17, (5-methoxy-2-methyl-2,3-dihydro-1H-inden-2-yl)methanol]",Proportion of Indole OSNs,[2],23%
